{
  "source": "ChEMBL document CHEMBL1143233",
  "about": "“Synthesis, characterization and evaluation of benzimidazole derivative and its precursors as inhibitors of MDA-MB-231 human breast cancer cell proliferation” (2008)",
  "system": "MDA-MB-231",
  "assay": "Antiproliferative activity against human MDA-MB-231 cells at 2 mM after 72 hrs by MTS/PMS assay",
  "details": "MDA-MB-231, 72 h",
  "data": [
    {"molecule": "N#Cc1ccc(NC(=O)c2ccc3c(c2)nc(-c2ccc(Cl)cc2Cl)n3Cc2ccc(F)cc2)cc1C(F)(F)F", "values": [
      {"measurement": "inhibition at 2000 µM", "value": 26.1, "unit": "%"}
    ]},
    {"molecule": "N#Cc1ccc(NC(=O)c2ccc(NCc3ccc(F)cc3)c(N)c2)cc1C(F)(F)F", "values": [
      {"measurement": "inhibition at 2000 µM", "value": 9.8, "unit": "%"}
    ]},
    {"molecule": "N#Cc1ccc(NC(=O)c2ccc(F)c([N+](=O)[O-])c2)cc1C(F)(F)F", "values": [
      {"measurement": "inhibition at 2000 µM", "value": 60, "unit": "%"}
    ]},
    {"molecule": "N#Cc1ccc(NC(=O)c2ccc(NCc3ccc(F)cc3)c([N+](=O)[O-])c2)cc1C(F)(F)F", "values": [
      {"measurement": "inhibition at 2000 µM", "value": 0, "unit": "%"}
    ]},
    {"molecule": "N#Cc1ccc(NC(=O)c2ccc(NCc3ccc(F)cc3)c(NC(=O)c3ccc(Cl)cc3Cl)c2)cc1C(F)(F)F", "values": [
      {"measurement": "inhibition at 2000 µM", "value": 0, "unit": "%"}
    ]}
  ]
}
